The values below come from ChEMBL document CHEMBL5335800, “Focused Screening Identifies Different Sensitivities of Human TET Oxygenases to the Oncometabolite 2-Hydroxyglutarate” (J Med Chem, 2024).

Active and inactive are the calls of the source. The rule behind the calls is not given here.

In data set [1] the target is T1, Methylcytosine dioxygenase TET3 (Homo sapiens, UniProt O43151). Put plainly: Inhibition of human TET3 catalytic domain (E824 to I1795 residues) expressed in mammalian cells using 5-methylcytosine as substrate preincubated for 10 mins followed by DNA-cofactor addition and measured after 10 mins by Alphascreen assay. (In general: In Alpha technology, singlet oxygen from a donor bead excites a nearby acceptor bead.)

The target in data set [2] is T1, Methylcytosine dioxygenase TET3. Nature of the data set: Inhibition of human TET3 catalytic domain (E824 to I1795 residues) expressed in mammalian cells using 5-methylcytosine as substrate at 100 uM preincubated for 10 mins followed by DNA-cofactor addition and measured after 10 mins by Alphascreen assay relative to control. To be noted: time 20.0 min.
In data set [3] the target is T2, Methylcytosine dioxygenase TET1 (Homo sapiens, UniProt Q8NFU7). Nature of the data set: Inhibition of N-terminal 3xFlag-tagged human TET1 catalytic domain (E1418 to V2136 residues) expressed in Sf9 cells using 5-methylcytosine as substrate preincubated for 10 mins followed by DNA-cofactor addition and measured after 30 mins by Alphascreen assay.
The species named for data set [4] is Homo sapiens. Conditions: dose 100.0 µM, time 20.0 min.
For data set [5], the system named is U2OS. Format: toxicity, cell-based. Conditions: human.
For data set [6], the species on record is Homo sapiens. Nature of the data set: Inhibition of N-terminal His-tagged recombinant human TET2 catalytic domain LCIdel mutant (D1129 to G1936 residues with Y1481 to N1843 replaced by a 3 x GGGGS linker) expressed in Escherichia coli BL21 (DE3) using 5-methylcytosine as substrate at 100 uM preincubated for 10 mins followed by DNA-cofactor addition and measured after 10 mins by Alphascreen assay relative to control. Conditions: time 20.0 min.

Data set [7] addresses T2, Methylcytosine dioxygenase TET1. Nature of the data set: Inhibition of N-terminal 3xFlag-tagged human TET1 catalytic domain (E1418 to V2136 residues) expressed in Sf9 cells using 5-methylcytosine as substrate at 100 uM preincubated for 10 mins followed by DNA-cofactor addition and measured after 30 mins by Alphascreen assay relative to control. To be noted: time 40.0 min.

Data set [8] has the same target.
Data set [9] concerns the target T3, Methylcytosine dioxygenase TET2 (Homo sapiens, UniProt Q6N021). To be noted: sf9.
For data set [10], the target named is T3, Methylcytosine dioxygenase TET2. Nature of the data set: biochemical.
In data set [11] the target is T2, Methylcytosine dioxygenase TET1. The class given is cell-based. Conditions: U2OS, dose 1.0 mM.
The target is the same in data set [12]. Format: cell-based. To be noted: U2OS, dose > 33.0 µM.
Data set [13] has as its system U2OS. The class given is toxicity, cell-based. To be noted: human. This is another data set of the same source.
Data set [14] concerns the target T2, Methylcytosine dioxygenase TET1. Format: cell-based. To be noted: U2OS, dose 3.0 mM.
Data set [15] is filed under the species Homo sapiens. Nature of the data set: Competitive inhibition of N-terminal His-tagged recombinant human TET2 catalytic domain LCIdel mutant (D1129 to G1936 residues with Y1481 to N1843 replaced by a 3 x GGGGS linker) expressed in Escherichia coli BL21 (DE3) using 5-methylcytosine as substrate preincubated for 10 mins followed by DNA-cofactor addition in presence of 2-OG and measured after 10 mins by Alphascreen assay. To be noted: time 20.0 min.

T2 sequence (Q8NFU7 whole entry, the tested form may be a part): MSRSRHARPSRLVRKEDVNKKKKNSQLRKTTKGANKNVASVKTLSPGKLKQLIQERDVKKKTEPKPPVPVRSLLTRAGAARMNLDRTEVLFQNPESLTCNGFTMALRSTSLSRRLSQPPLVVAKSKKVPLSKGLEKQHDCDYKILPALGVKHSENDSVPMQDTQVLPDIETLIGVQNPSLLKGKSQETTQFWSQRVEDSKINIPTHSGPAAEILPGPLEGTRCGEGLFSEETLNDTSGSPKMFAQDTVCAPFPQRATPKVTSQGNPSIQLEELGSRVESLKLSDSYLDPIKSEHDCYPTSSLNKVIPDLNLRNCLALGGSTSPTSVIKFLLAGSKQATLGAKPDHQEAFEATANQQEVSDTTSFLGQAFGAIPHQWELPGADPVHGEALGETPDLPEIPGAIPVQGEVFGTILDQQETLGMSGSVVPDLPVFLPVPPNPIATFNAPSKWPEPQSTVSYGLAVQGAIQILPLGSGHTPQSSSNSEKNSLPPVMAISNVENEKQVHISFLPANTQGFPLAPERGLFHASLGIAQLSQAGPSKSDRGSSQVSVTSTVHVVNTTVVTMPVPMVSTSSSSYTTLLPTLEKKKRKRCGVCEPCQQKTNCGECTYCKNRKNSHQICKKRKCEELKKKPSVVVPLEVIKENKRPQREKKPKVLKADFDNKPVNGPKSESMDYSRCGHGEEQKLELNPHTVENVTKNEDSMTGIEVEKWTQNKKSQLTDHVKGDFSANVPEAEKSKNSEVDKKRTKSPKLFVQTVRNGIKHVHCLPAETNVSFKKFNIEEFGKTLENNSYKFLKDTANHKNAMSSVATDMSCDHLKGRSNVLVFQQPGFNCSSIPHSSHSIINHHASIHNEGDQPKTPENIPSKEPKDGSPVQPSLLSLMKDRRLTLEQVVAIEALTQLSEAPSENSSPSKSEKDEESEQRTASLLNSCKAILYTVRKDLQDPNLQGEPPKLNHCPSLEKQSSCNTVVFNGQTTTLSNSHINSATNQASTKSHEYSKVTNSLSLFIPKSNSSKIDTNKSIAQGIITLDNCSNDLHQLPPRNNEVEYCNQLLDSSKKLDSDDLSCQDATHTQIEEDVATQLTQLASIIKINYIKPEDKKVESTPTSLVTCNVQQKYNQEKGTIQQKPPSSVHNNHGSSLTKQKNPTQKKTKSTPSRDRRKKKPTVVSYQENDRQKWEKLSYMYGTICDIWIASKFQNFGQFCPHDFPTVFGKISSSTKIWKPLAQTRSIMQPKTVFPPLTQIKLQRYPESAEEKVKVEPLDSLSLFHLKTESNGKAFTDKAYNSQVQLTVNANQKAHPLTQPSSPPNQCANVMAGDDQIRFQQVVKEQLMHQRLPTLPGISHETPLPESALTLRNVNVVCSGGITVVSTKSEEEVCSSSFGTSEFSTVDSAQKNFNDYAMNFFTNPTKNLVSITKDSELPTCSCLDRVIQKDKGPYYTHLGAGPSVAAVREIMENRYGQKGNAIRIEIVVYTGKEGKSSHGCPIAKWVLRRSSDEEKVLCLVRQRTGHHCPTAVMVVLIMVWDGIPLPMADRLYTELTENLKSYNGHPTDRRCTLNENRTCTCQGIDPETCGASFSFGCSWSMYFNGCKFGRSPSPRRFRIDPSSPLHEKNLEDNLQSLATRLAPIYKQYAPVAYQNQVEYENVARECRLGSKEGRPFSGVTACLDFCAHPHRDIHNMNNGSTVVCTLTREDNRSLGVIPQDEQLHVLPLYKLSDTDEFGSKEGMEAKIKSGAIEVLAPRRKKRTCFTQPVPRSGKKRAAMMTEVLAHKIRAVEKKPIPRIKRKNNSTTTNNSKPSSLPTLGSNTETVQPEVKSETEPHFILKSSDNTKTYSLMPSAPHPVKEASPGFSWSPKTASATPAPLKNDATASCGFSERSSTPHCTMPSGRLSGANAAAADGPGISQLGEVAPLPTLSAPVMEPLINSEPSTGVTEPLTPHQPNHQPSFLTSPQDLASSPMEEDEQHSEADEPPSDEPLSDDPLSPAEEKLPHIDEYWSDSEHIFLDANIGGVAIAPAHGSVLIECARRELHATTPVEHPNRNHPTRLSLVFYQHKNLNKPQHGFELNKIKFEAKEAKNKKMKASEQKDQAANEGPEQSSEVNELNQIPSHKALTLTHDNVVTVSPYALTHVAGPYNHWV
T1 sequence (O43151 whole entry, the tested form may be a part): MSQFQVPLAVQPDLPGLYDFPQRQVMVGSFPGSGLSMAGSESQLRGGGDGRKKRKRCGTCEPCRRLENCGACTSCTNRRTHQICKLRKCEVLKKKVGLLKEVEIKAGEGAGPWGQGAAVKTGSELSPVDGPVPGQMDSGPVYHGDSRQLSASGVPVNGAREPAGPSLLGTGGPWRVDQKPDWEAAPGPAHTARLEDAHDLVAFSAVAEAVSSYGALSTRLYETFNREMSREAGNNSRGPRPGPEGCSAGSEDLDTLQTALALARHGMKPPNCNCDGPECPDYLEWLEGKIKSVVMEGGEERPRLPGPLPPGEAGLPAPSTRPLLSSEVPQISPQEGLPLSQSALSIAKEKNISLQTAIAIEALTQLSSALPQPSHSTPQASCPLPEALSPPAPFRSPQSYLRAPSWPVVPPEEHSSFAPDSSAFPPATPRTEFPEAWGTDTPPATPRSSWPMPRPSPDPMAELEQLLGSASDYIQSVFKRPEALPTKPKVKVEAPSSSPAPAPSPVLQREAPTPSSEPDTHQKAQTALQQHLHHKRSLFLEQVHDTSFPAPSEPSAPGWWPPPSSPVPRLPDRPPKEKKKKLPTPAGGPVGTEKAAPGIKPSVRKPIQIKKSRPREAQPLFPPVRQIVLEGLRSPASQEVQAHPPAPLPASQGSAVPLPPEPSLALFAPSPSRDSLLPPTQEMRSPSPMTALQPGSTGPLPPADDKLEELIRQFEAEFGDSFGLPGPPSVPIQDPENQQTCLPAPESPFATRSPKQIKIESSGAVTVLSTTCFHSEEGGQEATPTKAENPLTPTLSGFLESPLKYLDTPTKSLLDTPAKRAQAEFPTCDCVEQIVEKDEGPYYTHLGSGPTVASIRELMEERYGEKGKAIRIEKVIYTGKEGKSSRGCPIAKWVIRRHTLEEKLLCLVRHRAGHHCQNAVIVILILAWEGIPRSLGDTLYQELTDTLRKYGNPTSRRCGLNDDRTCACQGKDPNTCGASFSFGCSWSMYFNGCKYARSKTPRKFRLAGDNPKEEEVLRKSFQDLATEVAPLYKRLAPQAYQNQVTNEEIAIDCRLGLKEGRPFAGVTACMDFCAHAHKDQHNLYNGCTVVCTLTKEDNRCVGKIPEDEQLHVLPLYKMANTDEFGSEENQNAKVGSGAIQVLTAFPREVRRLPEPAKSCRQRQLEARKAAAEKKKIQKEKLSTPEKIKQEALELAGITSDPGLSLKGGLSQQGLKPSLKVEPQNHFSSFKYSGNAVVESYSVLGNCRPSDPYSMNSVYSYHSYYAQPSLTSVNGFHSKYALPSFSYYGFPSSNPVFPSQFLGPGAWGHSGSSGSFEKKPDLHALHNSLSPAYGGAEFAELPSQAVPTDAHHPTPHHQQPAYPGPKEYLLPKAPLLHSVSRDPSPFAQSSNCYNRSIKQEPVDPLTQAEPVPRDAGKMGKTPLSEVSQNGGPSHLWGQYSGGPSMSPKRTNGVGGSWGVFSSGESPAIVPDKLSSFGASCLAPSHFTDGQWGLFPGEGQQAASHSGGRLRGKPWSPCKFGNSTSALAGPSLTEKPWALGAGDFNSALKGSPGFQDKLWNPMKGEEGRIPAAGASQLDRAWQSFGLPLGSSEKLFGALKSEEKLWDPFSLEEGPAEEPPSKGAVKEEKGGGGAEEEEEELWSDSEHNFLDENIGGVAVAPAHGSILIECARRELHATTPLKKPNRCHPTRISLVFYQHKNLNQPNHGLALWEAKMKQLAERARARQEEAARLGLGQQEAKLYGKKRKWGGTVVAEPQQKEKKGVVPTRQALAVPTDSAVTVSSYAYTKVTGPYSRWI

As to `O=C(O)CNC(=O)c1c(O)c2ccccc2n(Cc2ccccc2)c1=O`, the IC50 in [1] (read-out: IC50) was not below 100 µM; in data set [1] (read-out: pIC50 (converted)), not below 100 µM; in data set [3] (read-out: pIC50 (converted)), not below 100 µM; in data set [3] (sf9, read-out: IC50), not below 100 µM. For the same compound, in [2], the inhibition (as a rule, the percentage by which the read-out fell short of the control) is less than 20%.
The compound `Nc1nc(=O)n([C@H]2C[C@H](O)[C@@H](CO)O2)cc1CO` came in with an inhibition in [4] of less than 20%.
Take `CCCCCCCCOC(=O)[C@H](O)CCC(=O)O`: the pCC50 (commonly the negative decadic logarithm of the CC50, by convention in mol/L) in data set [5] was less than 2.7.
On to `CC(C)c1c(-c2ccccc2)[nH]c2c(C#N)cnn2c1=O`, for which the IC50 in data set [1] (read-out: IC50) and in data set [3] (read-out: IC50) was more than 100 µM throughout. The inhibition in data set [2], in data set [4], in data set [6] and in [7] was less than 20% each time.
As for `O=c1c(-n2ccnn2)c[nH]n1-c1cc(N2CCOCC2)ncn1` [MOLIDUSTAT], in data set [8], the EC50 (commonly the concentration at which the effect is half-maximal) is approximately 100 µM.
As for `Cc1nc(C(=O)NCC(=O)O)c(O)c2ccc(Oc3ccccc3)cc12` [ROXADUSTAT], the IC50 in [1] (read-out: IC50) is not below 100 µM; in data set [1] (read-out: pIC50 (converted)), not below 100 µM; in data set [3] (read-out: pIC50 (converted)), not below 100 µM; in data set [3] (sf9, read-out: IC50) it was not below 100 µM. Further, in data set [6], the inhibition was less than 20%.
Consider `O=C(O)CNC(=O)c1c(O)n(C2CCCCC2)c(=O)n(C2CCCCC2)c1=O`, for which the IC50 in data set [1] (read-out: IC50) is not below 100 µM; in data set [1] (read-out: pIC50 (converted)) it was not below 100 µM; in data set [9], not below 100 µM; in data set [3] (read-out: pIC50 (converted)), not below 100 µM; in [3] (sf9, read-out: IC50) it was not below 100 µM; in data set [10], not below 100 µM. For the same compound, the inhibition in [2] turned out to be 36%; in data set [7], 63%.
In data set [4], `Cc1cn([C@H]2C[C@H](O)[C@@H](CO)O2)c(=O)nc1N` showed an inhibition of less than 20%.
On to `CCN(CCN(C)C)C(=O)CNCc1cc(C(N)=O)ccn1`, for which the IC50 in [1] (read-out: IC50) and in [3] (read-out: IC50) was more than 100 µM in each case. The inhibition in [2], in data set [4] and in data set [7] was less than 20% each time.
On to `O=C(O)CNC(=O)c1nc(Cl)c2ccccc2c1O`, for which the IC50 in data set [1] (read-out: IC50) is not below 100 µM; in data set [1] (read-out: pIC50 (converted)), not below 100 µM; in [3] (read-out: pIC50 (converted)), not below 100 µM; in [3] (sf9, read-out: IC50) it was not below 100 µM.
On to `COC(=O)c1ccnc(C(=O)OC)c1`, for which, in data set [11], the inhibition entry is “inactive”.
As for `Cc1[nH]c2ccccc2c1CCNCc1ccc(/C=C/C(=O)NO)cc1` [PANOBINOSTAT], the inhibition result in data set [12] was “Active”. Moreover, the Activity result in [13] is recorded as “Dose-Dependent Effect”.
In turn, `COC(=O)CCC(=O)C(=O)OC` showed a negative logarithm of the CC50 (pCC50) in data set [5] of less than 2.
As to `CCCCCCCCOC(=O)[C@@H](O)CCC(=O)O`, in [14], the inhibition entry is “inactive”. The pCC50 in data set [5] is less than 2.7.
Turning to `O=C(O)c1ccc(O)c2ncccc12`, the inhibition entry in data set [15] is “Active”.
On to `O=C(O)CCNc1cc(N2CCc3ccccc3CC2)nc(-c2ccccn2)n1`, for which, in data set [6], the inhibition was less than 20%. Further, in [3] (read-out: IC50), the IC50 was more than 100 µM.
As for `CN(c1ccccc1)c1ccc2c(c1)CCC[C@H]2CNc1cnccc1C(=O)O`, the IC50 in data set [1] (read-out: IC50) and in data set [3] (read-out: IC50) was more than 100 µM in each case.
